# Test results reported in ChEMBL document CHEMBL4425112, “1,2-Benzisothiazole Derivatives Bearing 4-, 5-, or 6-Alkyl/arylcarboxamide Moieties Inhibit Carbonic Anhydrase Isoform IX (CAIX) and Cell Proliferation under Hypoxic Conditions” (J Med Chem, 2016).
# Legend:
# Carbonic anhydrase 2 = Carbonic anhydrase 2 (Homo sapiens, UniProt P00918)
# Description: Inhibition of human carbonic anhydrase 2 preincubated for 15 mins by stopped flow CO2 hydration assay
# Carbonic anhydrase 9 = Carbonic anhydrase 9 (Homo sapiens, UniProt Q16790); experiment: Inhibition of human carbonic anhydrase 9 catalytic site preincubated for 15 mins by stopped flow CO2 hydration assay
# Carbonic anhydrase 1 = Carbonic anhydrase 1 (Homo sapiens, UniProt P00915)
# Description: Inhibition of human carbonic anhydrase 1 preincubated for 15 mins by stopped flow CO2 hydration assay
# HT-29 [1] = experiment: Antiproliferative activity against human HT-29 cells assessed as reduction in cell viability after 72 hrs by cell counter method; format: cell-based; details: HT-29, 72 h
# [2] = Toxicity in nude mouse xenografted with human HT-29 cells assessed as clinical toxicity at 25 to 50 mg/kg, ip administered qd measured after 16 days; format: organism-based; details: in vivo, 384 h
# [3] = Toxicity in nude mouse xenografted with human HT-29 cells assessed as weight loss at 25 to 50 mg/kg, ip administered qd measured after 16 days; format: organism-based; details: in vivo, 384 h
# Carbonic anhydrase 7 = Carbonic anhydrase 7 (Homo sapiens, UniProt P43166); experiment: Inhibition of human carbonic anhydrase 7 preincubated for 15 mins by stopped flow CO2 hydration assay
# HT-29 [4] = experiment: Synergistic cytotoxicity in human HT-29 cells assessed as dose reduction index ratio in presence of CoCl2-induced hypoxic conditions measured at 80 % cell growth inhibition after 72 hrs in presence of compound-5c by cell counter method; format: functional
# HT-29 [5] = experiment: Synergistic cytotoxicity in human HT-29 cells assessed as dose reduction index ratio in presence of CoCl2-induced hypoxic conditions measured at 90 % cell growth inhibition after 72 hrs in presence of compound-5c by cell counter method; format: functional
# HT-29 [6] = experiment: Synergistic cytotoxicity in human HT-29 cells assessed as dose reduction index ratio in presence of CoCl2-induced hypoxic conditions measured at 70 % cell growth inhibition after 72 hrs in presence of compound-5c by cell counter method; format: functional
# Sequence of Carbonic anhydrase 1 (P00915 whole entry): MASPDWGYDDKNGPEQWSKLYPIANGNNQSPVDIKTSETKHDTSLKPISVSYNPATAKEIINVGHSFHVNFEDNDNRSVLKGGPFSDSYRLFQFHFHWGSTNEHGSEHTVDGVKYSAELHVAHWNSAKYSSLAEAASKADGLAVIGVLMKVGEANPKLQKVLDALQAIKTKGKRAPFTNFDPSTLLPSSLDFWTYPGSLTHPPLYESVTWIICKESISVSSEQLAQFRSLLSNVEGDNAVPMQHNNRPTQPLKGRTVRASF
# Sequence of Carbonic anhydrase 7 (P43166 whole entry): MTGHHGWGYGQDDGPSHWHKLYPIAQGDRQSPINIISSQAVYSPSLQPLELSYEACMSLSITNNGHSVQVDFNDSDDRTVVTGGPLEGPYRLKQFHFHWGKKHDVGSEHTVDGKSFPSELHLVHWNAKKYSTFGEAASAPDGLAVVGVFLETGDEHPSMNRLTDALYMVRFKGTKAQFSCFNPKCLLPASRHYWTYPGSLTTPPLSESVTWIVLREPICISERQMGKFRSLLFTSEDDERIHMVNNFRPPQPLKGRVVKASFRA
SMILES,Ki (Carbonic anhydrase 2) [nM],Ki (Carbonic anhydrase 9) [nM],Ki (Carbonic anhydrase 1) [nM],also measured
O=C(Nc1cccc2c1C(=O)NS2(=O)=O)c1ccc(-c2ccccc2)cc1,910,1190,> 50000,
COc1ccc(C(=O)Nc2ccc3c(c2)C(=O)NS3(=O)=O)cc1,790,74,,
O=C(Nc1cccc2c1C(=O)NS2(=O)=O)c1ccccc1,184,223,> 50000,
COc1ccc(C(=O)Nc2ccc3c(c2)S(=O)(=O)NC3=O)cc1,6940,205,> 50000,
O=C(Nc1ccc2c(c1)C(=O)NS2(=O)=O)c1cccc(Br)c1,3930,31.5,,
O=C(Nc1ccc2c(c1)S(=O)(=O)NC2=O)c1ccc(F)cc1,908,543,> 50000,
O=C(Nc1ccc2c(c1)C(=O)NS2(=O)=O)c1ccc(-c2ccccc2)cc1,82.9,231,> 50000,
O=C(Nc1ccc2c(c1)S(=O)(=O)NC2=O)c1cccc(Cl)c1,6020,233,> 50000,
Cc1ccc(C(=O)Nc2ccc3c(c2)S(=O)(=O)NC3=O)cc1,411,539,> 50000,
O=C(Nc1ccc2c(c1)C(=O)NS2(=O)=O)c1cccc(Cl)c1,589,67.9,,IC50 (HT-29 [1]): > 100000 nM; Activity [2]: Non-Toxic; Activity [3]: Non-Toxic
O=C(Nc1ccc2c(c1)C(=O)NS2(=O)=O)c1ccc(F)cc1,6880,27.2,,
O=C(Nc1cccc2c1C(=O)NS2(=O)=O)c1cccc(Br)c1,593,31.2,,IC50 (HT-29 [1]): > 100000 nM; Ki (Carbonic anhydrase 7): > 50000 nM
O=C(Nc1ccc2c(c1)S(=O)(=O)NC2=O)c1ccccc1,7270,220,> 50000,
O=C(Nc1ccc2c(c1)S(=O)(=O)NC2=O)c1ccc(Cl)cc1,4670,1920,> 50000,
O=C(Nc1ccc2c(c1)C(=O)NS2(=O)=O)c1ccc(Cl)cc1,2300,86.2,> 50000,
O=C(Nc1ccc2c(c1)S(=O)(=O)NC2=O)c1cccc(Br)c1,837,665,> 50000,
CC(=O)Nc1ccc2c(c1)C(=O)NS2(=O)=O,1480,30.4,,IC50 (HT-29 [1]): > 100000 nM; Ki (Carbonic anhydrase 7): > 50000 nM
CCc1c2c(nc3ccc(O)cc13)-c1cc3c(c(=O)n1C2)COC(=O)[C@]3(O)CC [7-ETHYL-10-HYDROXYCAMPTOTHECIN],,,,Ratio (HT-29 [4]): 2.039; Ratio (HT-29 [5]): 7.395; Ratio (HT-29 [6]): 0.866
O=c1[nH]cc(F)c(=O)[nH]1 [FLUOROURACIL],,,,Ratio (HT-29 [4]): 15.884; Ratio (HT-29 [5]): 89.952; Ratio (HT-29 [6]): 5.017
